Test results taken from patent US6777544B2, “Polyamide nucleic acid derivatives and agents and processes for preparing them” (Aventis Pharma Deutschland GmbH, priority 2000, dated 2004).

Legend:
complementary DNA = assay: Melting temperature (Tm) of PNA with complementary DNA; type: binding; details: 140 mM KCl, 10 mM sodium dihydrogen phosphate, 0.1 mM EDTA (pH 7.4); oligomer 0.5 to 1 OD260 per ml
Protocol: (§1) The melting temperatures were determined using an HP 8452A diode-array spectrophotometer, an HP 89090A Peltier element, and HP Temperature Control Software Rev. B5.1 (from Hewlett Packard). Measurements were taken in 0.5° C./min steps in 140 mM KCl, 10 mM sodium dihydrogen phosphate, 0.1 mM EDTA (pH 7.4) as the buffer. The oligomer concentration was from 0.5 to 1 OD260 per ml.

complementary RNA = assay: Melting temperature (Tm) of PNA with complementary RNA; type: binding; details: 140 mM KCl, 10 mM sodium dihydrogen phosphate, 0.1 mM EDTA (pH 7.4); oligomer 0.5 to 1 OD260 per ml
Protocol: as §1

REH cells = assay: Inhibiting cell proliferation (cell density); type: cell-based, human; details: 10 μM
Protocol: The sequence of PNA-13 is directed against the translation start of the Ha-ras mRNA. REH cells (human pre-B leukemia cells, DSM ACC 22) or A549 tumor cells were cultured, at 37° C. and under 5% CO2, in OptiMEM (Gibco BRL) containing 10% fetal calf serum (FCS, GIBCO-BRL). The cell density for the assay was approx. 1×10^6/ml. The PNA-13 (10 μM) was incubated with the cells in 24-well plates. After incubating at 37° C. and under 5% CO2 for 96 hours, the cell density was determined. Mean values for the cell density were determined from 3 individual wells at a given PNA concentration.

COS cells = assay: Cell uptake after fluorescence labeling (fluorescence microscopy); type: cell-based; details: PNA solution 10 μM, 37° C., examined after 2, 4 and 16 hours, C-terminally fluorescein-labeled, compared with labeled PNA-6
Protocol: COS cells were allowed to grow to confluence in Dulbecco's MEM (DMEM), which had been supplemented with 10% FCS, in 5 cm Petri dishes. The cells were washed twice with serum-free DM EM. An area of approx. 1 cm^2 was scratched out in the middle of the Petri dish using a sterile needle. The PNA solution (10 μM) under investigation was applied in this area. The dish was incubated at 37° C. under a CO2 atmosphere. After 2, 4, and 16 hours, the cells were examined by fluorescence microscopy. For this, the cells were washed four times with serum-free DM EM, covered with a cover slip, and evaluated under the fluorescence microscope or by phase contrast.
In order to investigate the cell uptake, PNA-6 and PNA-13 were labeled as indicated directly below with fluorescein at the C terminus and then examined microscopically.

Substance	Tm (DNA) (complementary DNA)	Tm (RNA) (complementary RNA)	inhibition of cell proliferation (REH cells; 96 hours, 37° C., 5% CO2)	inhibition of proliferation compared with a corresponding phosphorothioate oligonucleotide (REH cells; after >4 days of incubation)	cell uptake (COS cells)
Ac-HN-tat tcc gtc at-hex [Reference, reference compound]	41.9 °C	56.6 °C	–	–	–
Biotin-p-{t(oeg) at tcc gtc at}-hex [PNA-12]	43.6 °C	57.9 °C	–	–	–
Fluorescein-p-{t(oeg) at tcc gtc at}-hex (TATTCCGTCAT; chemistry not fully specified) [PNA-14]	42.5 °C	56.7 °C	–	–	–
Hexadecyl-O-p-{t(oeg) at tcc gtc at}-hex (TATTCCGTCAT; chemistry not fully specified) [PNA-13]	46.7 °C	58.9 °C	inhibits proliferation of the REH cells	greater than that brought about by a corresponding phosphorothioate oligonucleotide	taken up more efficiently into the cells
Phosphate-{t(oeg)-at tcc gtc at}-hex (TATTCCGTCAT; chemistry not fully specified) [PNA-6]	44.0 °C	57.5 °C	–	–	–
